Test results reported in the NIST ThermoML archive (doi:10.1007/s10765-010-0737-5).

What was measured:
[1] = xn = mol fraction of the nth substance listed; details: Liquid, x2 = 0; for viscosity: 101 kPa, Capillary tube (Ostwald / Ubbelohde) method; for mass density: 101.3 kPa
[2] = Liquid; for viscosity: 101 kPa, Capillary tube (Ostwald / Ubbelohde) method; for mass density: 101.3 kPa

CC(C)OC(C)C [diisopropyl ether] + CCCCCl
[1]
Details | mass density [kg/m3] | viscosity [mPa·s]
283.15 K | 733.833 | 0.3646
288.15 K | 728.692 | 0.3486
293.15 K | 723.509 | 0.334
298.15 K | 718.289 | 0.3178
303.15 K | 713.032 | 0.3001
308.15 K | 707.727 | 0.2857
313.15 K | 702.378 | 0.2723

CC(C)OC(C)C [diisopropyl ether] + CC(C)(C)Cl
[1]
Details | mass density [kg/m3] | viscosity [mPa·s]
283.15 K | 733.833 | 0.3646
288.15 K | 728.692 | 0.3486
293.15 K | 723.509 | 0.334
298.15 K | 718.289 | 0.3178
303.15 K | 713.032 | 0.3001
308.15 K | 707.727 | 0.2857
313.15 K | 702.378 | 0.2723

CC(C)(C)Cl [2-chloro-2-methylpropane]
[2]
Details | mass density [kg/m3] | viscosity [mPa·s]
283.15 K | 855.249 | 0.598
288.15 K | 849.243 | 0.5538
293.15 K | 843.191 | 0.5135
298.15 K | 837.096 | 0.4768
303.15 K | 830.958 | 0.4438
308.15 K | 824.772 | 0.4196
313.15 K | 818.536 | 0.3904

CC(C)OC(C)C [diisopropyl ether] + CC(C)CCl
[1]
Details | mass density [kg/m3] | viscosity [mPa·s]
283.15 K | 733.833 | 0.3646
288.15 K | 728.692 | 0.3486
293.15 K | 723.509 | 0.334
298.15 K | 718.289 | 0.3178
303.15 K | 713.032 | 0.3001
308.15 K | 707.727 | 0.2857
313.15 K | 702.378 | 0.2723

CCCCCl [1-chlorobutane]
[2]
Details | mass density [kg/m3] | viscosity [mPa·s]
283.15 K | 897.339 | 0.4993
288.15 K | 891.855 | 0.4701
293.15 K | 886.335 | 0.4433
298.15 K | 880.705 | 0.4214
303.15 K | 875.204 | 0.405
308.15 K | 869.585 | 0.3885
313.15 K | 863.882 | 0.3642

CC(C)OC(C)C [diisopropyl ether]
[2]
Details | mass density [kg/m3] | viscosity [mPa·s]
283.15 K | 733.833 | 0.3646
288.15 K | 728.692 | 0.3486
293.15 K | 723.509 | 0.334
298.15 K | 718.289 | 0.3178
303.15 K | 713.032 | 0.3001
308.15 K | 707.727 | 0.2857
313.15 K | 702.378 | 0.2723

CCC(C)Cl (stereo unspecified) [2-chlorobutane]
[2]
Details | mass density [kg/m3] | viscosity [mPa·s]
283.15 K | 884.34 | 0.4631
288.15 K | 878.756 | 0.4365
293.15 K | 873.13 | 0.4167
298.15 K | 867.474 | 0.3993
303.15 K | 861.779 | 0.38
308.15 K | 856.044 | 0.3615
313.15 K | 850.266 | 0.3443

CC(C)CCl [1-chloro-2-methylpropane]
[2]
Details | mass density [kg/m3] | viscosity [mPa·s]
283.15 K | 888.845 | 0.5155
288.15 K | 883.211 | 0.4833
293.15 K | 877.539 | 0.454
298.15 K | 871.533 | 0.4296
303.15 K | 866.096 | 0.4112
308.15 K | 860.319 | 0.3921
313.15 K | 853.902 | 0.3726

CC(C)OC(C)C [diisopropyl ether] + CCC(C)Cl
[1]
Details | mass density [kg/m3] | viscosity [mPa·s]
283.15 K | 733.833 | 0.3646
288.15 K | 728.692 | 0.3486
293.15 K | 723.509 | 0.334
298.15 K | 718.289 | 0.3178
303.15 K | 713.032 | 0.3001
308.15 K | 707.727 | 0.2857
313.15 K | 702.378 | 0.2723
